In patent publication US7265135B2 (Ortho-McNeil Pharmaceutical, Inc., priority 2001, dated 2007) one finds Ki data, which are given here for 28 compounds.

T1 sequence (Q9Y5N1 whole entry): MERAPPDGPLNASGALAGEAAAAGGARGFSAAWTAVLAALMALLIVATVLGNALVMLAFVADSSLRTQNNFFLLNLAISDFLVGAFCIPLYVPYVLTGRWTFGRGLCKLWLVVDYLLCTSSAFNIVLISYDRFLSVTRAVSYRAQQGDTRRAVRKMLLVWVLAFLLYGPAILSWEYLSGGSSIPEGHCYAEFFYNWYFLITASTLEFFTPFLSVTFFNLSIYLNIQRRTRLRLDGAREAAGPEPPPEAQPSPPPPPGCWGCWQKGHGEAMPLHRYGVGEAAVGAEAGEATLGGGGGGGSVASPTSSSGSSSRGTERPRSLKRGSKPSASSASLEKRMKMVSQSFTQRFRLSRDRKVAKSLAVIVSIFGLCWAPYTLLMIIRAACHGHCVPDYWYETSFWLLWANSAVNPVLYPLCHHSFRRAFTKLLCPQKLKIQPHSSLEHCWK

The first assay has as its target T1, human histamine H3 receptor (Homo sapiens, UniProt Q9Y5N1).
T1 construct: One μg supercoiled H3 receptor cDNA was added to the cells and mixed; expressed in transfected cells; membranes prepared from cell pellets
The experiment in a line: [3H]-N-methylhistamine binding assay. As to conditions: membranes of histamine H3 receptor-expressing SK-N-MC cells; 0.8 nM [3H]-N-methylhistamine; 45 min at 25° C.; Ki=(IC50)/(1+([L]/(KD)). On the procedure: The histamine H3 receptor binding effectiveness of compounds of the present invention was determined using the human histamine H3 receptor, Lovenberg et al Mol. Pharmacol. 1999, 1107. Screening using the human receptor is particularly important for the identification of new therapies for the treatment of human disease. Prior binding assays, for example, relied on rat synaptosomes (Garbarg et al J. Pharmacol. Exp. Ther. 1992, 263, 304), rat cortical membranes (West et al Mol. Pharmacol. 1990, 610), and guinea pig brain (Korte et al Biochem. Biophys. Res. Commun. 1990, 978). A recent comparative study comparing human H3 receptor activity with H3 receptors from rodent and primate have shown significant differences in the respective pharmacology of the rodent and primate receptors to the human receptor. (West et al Eur. J. Pharmacol. 1999, 233; Lovenberg et al., J. Pharmacol. Exp. Ther. 2000, 293, 771-778.)
A 10 cm tissue culture dish with a confluent monolayer of SK-N-MC cells was split two days prior to transfection. Using sterile technique the media was removed and the cells were detached from the dish by the addition of trypsin. One fifth of the cells were then placed onto a new 10 cm dish. Cells were grown in a 37° C. incubator with 5% CO2 in Minimal Essential Media Eagle with 10% Fetal Bovine Serum. After two days cells were approximately 80% confluent. These were removed from the dish with trypsin and pelleted in a clinical centrifuge. The pellet was then re-suspended in 400 μL complete media and transferred to an electroporation cuvette with a 0.4 cm gap between the electrodes (Bio-Rad #165-2088). One μg supercoiled H3 receptor cDNA was added to the cells and mixed. The voltage for the electroporation was set at 0.25 kV, the capacitance is set at 960 μF. After electroporation the cells were diluted into 10 mL complete media and plated onto four 10 cm dishes. Because of the variability in the efficiency of electroporation four different concentrations of cells were plated. The ratios used were; 1:20, 1:10, 1:5, with the remainder of the cells being added to the fourth dish. The cells were allowed to recover for 24 h before adding the selection media (complete media with 600 μg/mL G418). After 10 days dishes were analyzed for surviving colonies of cells. Dishes with well isolated colonies were used. Cells from individual colonies were isolated and tested. SK-N-MC cells were used because they give efficient coupling for inhibition of adenylate cyclase. The clones that gave the most robust inhibition of adenylate cyclase in response to histamine were used for further study.
Cell pellets from histamine H3 receptor-expressing SK-N-MC cells were homogenized in 20 mM Tris HCl/0.5 mM EDTA. Supernatants from a 800 g spin were collected, recentrifuged at 30,000 g for 30 minutes. Pellets were re-homogenized in 50 mM Tris/5 mM EDTA (pH 7.4). Membranes were incubated with 0.8 nM [^3H]-N-methylhistamine plus/minus test compounds for 45 min at 25° C. and harvested by rapid filtration over GF/C glass fiber filters (pretreated with 0.3% polyethylenimine) followed by four washes with ice cold buffer. Filters were dried, added to 4 mL scintillation cocktail and then counted on a liquid scintillation counter. Non-specific binding was defined with 10 μM histamine. PKi values were calculated based on a KD of 800 pM and a ligand concentration ([L]) of 800 pM according to the formula: Ki=(IC50)/(1+([L]/(KD))
On to `CN(C)CCCSc1ncc(C(=NO)c2ccc(Cl)cc2)n1C` (mixture of isomers) [(4-Chlorophenyl)-[2-(3-dimethylamino-propylsulfanyl)-3-methyl-3H-imidazol-4-yl]-methanone oxime], for which the Ki was 3.2 nM.

On to `CC(C)N1CCC(COc2ncc(C(O)c3ccc(C#N)cc3)n2C)CC1` (stereo not shown) [4-{Hydroxy-[2-(1-isopropyl-piperidin-4-ylmethoxy)-3-methyl-3H-imidazol-4-yl]-methyl}-benzonitrile], for which the affinity corresponds to a Ki of 7.6 nM.

The compound `CC(C)N1CCC(COc2ncc(C(=O)c3ccccc3Cl)n2C)CC1` [(2-Chlorophenyl)-[2-(1-isopropyl-piperidin-4-ylmethoxy)-3-methyl-3H-imidazol-4-yl]-methanone] showed a Ki of 1.3 nM.

Turning to `CC(C)N1CCC(COc2ncc(C(=O)c3cc(Cl)cc(Cl)c3)n2C)CC1` [(3,5-Dichlorophenyl)-[2-(1-isopropyl-piperidin-4-ylmethoxy)-3-methyl-3H-imidazol-4-yl]-methanone], the Ki came out at 4 nM.

As for `CC(C)N1CCC(COc2ncc(C(=O)c3cccc(Cl)c3)n2C)CC1` [(3-Chlorophenyl)-[2-(1-isopropyl-piperidin-4-ylmethoxy)-3-methyl-3H-imidazol-4-yl]-methanone], affinity was put at a Ki of 2.8 nM.

`CCN1CCC(COc2ncc(C(=O)c3ccc(Br)cc3)n2C)CC1` [(4-Bromophenyl)-[2-(1-ethyl-piperidin-4-ylmethoxy)-3-methyl-3H-imidazol-4-yl]-methanone] gave an inhibition constant (Ki) of 6.6 nM. This Ki lies about 2.4-fold higher than the previous one.

With `CC(C)N1CCC(COc2ncc(C(=O)c3ccc(Br)cc3)n2C)CC1` [(4-Bromophenyl)-[2-(1-isopropyl-piperidin-4-ylmethoxy)-3-methyl-3H-imidazol-4-yl]-methanone], the affinity corresponds to a Ki of 5.3 nM.

The compound `CCC(C)N1CCC(COc2ncc(C(=O)c3ccc(Br)cc3)n2C)CC1` (stereo not shown) [(4-Bromophenyl)-[2-(1-sec-butyl-piperidin-4-ylmethoxy)-3-methyl-3H-imidazol-4-yl]-methanone] showed a Ki of 9 nM. This Ki lies about 1.7-fold higher than the previous one.

`CN(C)CCCSc1ncc(C(=O)c2ccc(Br)cc2)n1C` [(4-Bromophenyl)-[2-(3-dimethylamino-propylsulfanyl)-3-methyl-3H-imidazol-4-yl]-methanone] came in with an inhibition constant Ki of 1.6 nM.

As for `Cn1c(C(=O)c2ccc(Br)cc2)cnc1SCCCN1CCCCC1` [(4-Bromophenyl)-[3-methyl-2-(3-piperidin-1-yl-propylsulfanyl)-3H-imidazol-4-ylmethanone], the Ki was determined as 7.5 nM.

Take `CN(C)CCSc1ncc(C(=O)c2ccc(Cl)cc2)n1C` [(4-Chloro-phenyl)-[2-(2-dimethylamino-ethylsulfanyl)-3-methyl-3H-imidazol-4-yl]methanone]: the Ki was 98 nM.

As for `CN(C)CCC[S+]([O-])c1ncc(C(=O)c2ccc(Cl)cc2)n1C` (stereo not shown) [(4-Chloro-phenyl)-[2-(3-dimethylamino-propane-1-sulfinyl)-3-methyl-3H-imidazol-4-yl]-methanone], the affinity, expressed as Ki, was 315 nM.

Compound `CN1CCC(Sc2ncc(C(=O)c3ccc(Cl)cc3)n2C)CC1` [(4-Chloro-phenyl)-[3-methyl-2-(1-methyl-piperidin-4-ylsulfanyl)-3H-imidazol-4-yl]-methanone] registered an inhibitory constant (Ki) of 7 nM. This Ki lies about 45-fold lower than the previous one.

Consider `CN1CCCC1CCSc1ncc(C(=O)c2ccc(Cl)cc2)n1C` (stereo not shown) [(4-Chloro-phenyl)-{3-methyl-2-[2-(1-methyl-pyrrolidin-2-yl)-ethylsulfanyl]-3H-imidazol-4-yl}-methanone], for which the inhibition constant Ki was 2 nM.

Consider `CC(C)N1CCC(Oc2ncc(C(=O)c3ccc(Cl)cc3)n2C)CC1` [(4-Chlorophenyl)-[2-(1-isopropyl-piperidin-4-yloxy)-3-methyl-3H-imidazol-4-yl]-methanone], for which the Ki was found to be 25 nM.

On to `CC(C)N1CCC(Sc2ncc(C(=O)c3ccc(Cl)cc3)n2C)CC1` [(4-Chlorophenyl)-[2-(1-isopropyl-piperidin-4-ylsulfanyl)-3-methyl-3H-imidazol-4-yl]-methanone], for which the affinity corresponds to a Ki of 3 nM.

For `CC(C)N1CCC(COc2ncc(C(=O)c3ccc(Cl)cc3)n2C)CC1` [(4-Chlorophenyl)-[2-(1-isopropylpiperidin-4-ylmethoxy)-3-methyl-3H-imidazol-4-yl]-methanone], the Ki was determined as 3.7 nM.

As for `CN(C)CCCSc1ncc(C(=O)c2ccc(Cl)cc2)n1C` [(4-Chlorophenyl)-[2-(3-dimethylamino-propylsulfanyl)-3-methyl-3H-imidazol-4-yl]-methanone], the Ki came to 2 nM. This Ki lies about 1.9-fold lower than the previous one.

`Cn1c(C(=O)c2ccc(Cl)cc2)cnc1SCCCN1CCCCC1` [(4-Chlorophenyl)-[3-methyl-2-(3-piperidin-1-yl-propylsulfanyl)-3H-imidazol-4-yl]-methanone] displayed an inhibitory constant (Ki) of 3.1 nM.

In the case of `CC(C)N1CCC(COc2ncc(C(=O)c3ccc(F)cc3)n2C)CC1` [(4-Fluorophenyl)-[2-(1-isopropyl-piperidin-4-ylmethoxy)-3-methyl-3H-imidazol-4-yl]-methanone], the inhibitory constant (Ki) was 2.5 nM.

Compound `CC(C)N1CCC(COc2ncc(C(=O)c3ccc([N+](=O)[O-])cc3)n2C)CC1` [[2-(1-Isopropyl-piperidin-4-ylmethoxy)-3-methyl-3H-imidazol-4-yl]-(4-nitro-phenyl)-methanone] displayed an inhibition constant (Ki) of 4.6 nM.

Take `CC(C)N1CCC(COc2ncc(C(=O)c3ccc(C(F)(F)F)cc3)n2C)CC1` [[2-(1-Isopropyl-piperidin-4-ylmethoxy)-3-methyl-3H-imidazol-4-yl]-(4-trifluoromethyl-phenyl)-methanone]: affinity was put at a Ki of 4.1 nM.

Regarding `CN(C)CCCSc1ncc(C(=O)c2ccccc2)n1C` [[2-(3-Dimethylamino-propylsulfanyl)-3-methyl-3H-imidazol-4-yl]-phenyl-methanone], the affinity, expressed as Ki, was 4 nM.

In turn, `Cn1c(C(=O)c2cccc3ccccc23)cnc1OCCCN1CCCCC1` [[3-Methyl-2-(3-piperidin-1-yl-propoxy)-3H-imidazol-4-yl]-naphthalen-1-yl-methanone] yielded an inhibition constant Ki of 79 nM. Compared with the last compound, the Ki is about 20-fold higher.

On to `Cn1c(CN2CCCCC2)cnc1OCCCN1CCCCC1` [[3-Methyl-2-(3-piperidin-1-yl-propoxy)-3H-imidazol-4-yl]-piperidin-1-yl-methane], for which affinity was put at a Ki of 36.4 nM.

Turning to `CN(C)CCCSc1ncc(Cc2ccc(Cl)cc2)n1C` [{3-[5-(4-Chlorobenzyl)-1-methyl-1H-imidazol-2-ylsulfanyl]-propyl}-dimethyl-amine], affinity was put at a Ki of 22 nM.

Staying with this assay, now noted: value printed in text of Example XVI Step B, no unit at the place.
For `Cn1c(C(=O)c2ccc(Cl)cc2)cnc1S(=O)(=O)CCC[N+](C)(C)[O-]`, the inhibition constant Ki stood at 10000 nM.

With `CN(C)CCCS(=O)(=O)c1ncc(C(=O)c2ccc(Cl)cc2)n1C` [(4-Chlorophenyl)-[2-(3-dimethylamino-propane-1-sulfonyl)-3-methyl-3H-imidazol-4-yl]-methanone], the affinity, expressed as Ki, was 10000 nM.
